# ChEMBL document CHEMBL1201862, “PubChem BioAssay data set” (2004)
#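 1) Cells in 96-well plates. 2) Compound, 48 h, 5 concentrations. 3) Linear interpolation between surrounding doses. 4) Unreached endpoint = highest concentration. GI50 marks 50% less growth.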 Activity calls are given as the source filed them. No stated cut-off is given here; in the data, active = GI50 up to about 1.1 µM and inactive = higher.
# Tests used:
# Assay in all cases: NCI tumour cell line growth inhibition, 48 h
# [1] = tested on: HCT-116
# [2] = tested on: OVCAR-8
# [3] = tested on: NCI-H23
# [4] = tested on: NCI-H522
# [5] = tested on: SNB-19
# [6] = tested on: SK-MEL-5
# [7] = tested on: TK-10
# [8] = tested on: M14
# [9] = tested on: SNB-75
# [10] = tested on: RXF 393
# [11] = tested on: KM12
# [12] = tested on: SK-OV-3
# [13] = tested on: HCT-15
# [14] = tested on: Malme-3M
# [15] = tested on: OVCAR-3
# [16] = tested on: LXFL 529
# [17] = tested on: RPMI-8226
# [18] = tested on: HOP-62
# [19] = tested on: SN12C
# [20] = tested on: EKVX
# [21] = tested on: M19-MEL
# [22] = tested on: OVCAR-4
# [23] = tested on: KM-20L2
# [24] = tested on: SR
# [25] = tested on: 786-0
# [26] = tested on: HOP-18
# [27] = tested on: SK-MEL-28
# [28] = tested on: DLD-1
# [29] = tested on: ACHN
# [30] = tested on: UACC-257
# [31] = tested on: A549
# [32] = tested on: XF498
# [33] = tested on: HT-29
# [34] = tested on: K562
# [35] = tested on: SK-MEL-2
# [36] = tested on: UACC-62
# [37] = tested on: RXF 631
# [38] = tested on: CAKI-1
# [39] = tested on: SF-295
# [40] = tested on: HOP-92
# [41] = tested on: U-251
# [42] = tested on: SF-268
# [43] = tested on: HL-60
# [44] = tested on: MOLT-4
# [45] = tested on: NCI-H460
# [46] = tested on: SF-539
# [47] = tested on: CCRF-CEM
# [48] = tested on: SW-620
# [49] = tested on: IGROV-1
# [50] = tested on: DMS-114
# [51] = tested on: NCI-H226
# [52] = tested on: COLO 205
# [53] = tested on: UO-31
# [54] = tested on: LOX IMVI
# [55] = tested on: HCC 2998
# [56] = tested on: SNB-78
# [57] = tested on: DMS-273
# [58] = tested on: A498
# [59] = tested on: OVCAR-5
structure (smiles),measurement,setting,value
COC(=O)C1=CNC(C(=O)OC)=NN1,GI50,[1],> 100 µM (inactive)
same,GI50,[2],> 100 µM (inactive)
same,GI50,[3],> 100 µM (inactive)
same,GI50,[4],> 100 µM (inactive)
same,GI50,[5],> 100 µM (inactive)
same,GI50,[6],> 100 µM (inactive)
same,GI50,[7],> 100 µM (inactive)
same,GI50,[8],> 100 µM (inactive)
same,GI50,[9],> 100 µM (inactive)
same,GI50,[10],> 100 µM (inactive)
same,GI50,[11],> 100 µM (inactive)
same,GI50,[12],> 100 µM (inactive)
same,GI50,[13],> 100 µM
same,GI50,[14],> 100 µM (inactive)
same,GI50,[15],> 100 µM (inactive)
same,GI50,[16],> 100 µM (inactive)
same,GI50,[17],> 100 µM (inactive)
same,GI50,[18],> 100 µM (inactive)
same,GI50,[19],> 100 µM (inactive)
same,GI50,[20],> 10 µM (inactive)
same,GI50,[21],> 100 µM (inactive)
same,GI50,[22],> 100 µM (inactive)
same,GI50,[23],> 100 µM (inactive)
same,GI50,[24],> 100 µM (inactive)
same,GI50,[25],> 100 µM (inactive)
same,GI50,[26],> 100 µM (inactive)
same,GI50,[27],> 100 µM (inactive)
same,GI50,[28],> 100 µM (inactive)
same,GI50,[29],> 100 µM (inactive)
same,GI50,[30],> 100 µM (inactive)
same,GI50,[31],> 100 µM (inactive)
same,GI50,[32],> 100 µM (inactive)
same,GI50,[33],> 100 µM (inactive)
same,GI50,[34],> 100 µM (inactive)
same,GI50,[35],> 100 µM (inactive)
same,GI50,[36],> 100 µM (inactive)
same,GI50,[37],> 100 µM (inactive)
same,GI50,[38],> 100 µM (inactive)
same,GI50,[39],> 100 µM (inactive)
same,GI50,[40],> 100 µM (inactive)
same,GI50,[41],> 100 µM (inactive)
same,GI50,[42],> 100 µM (inactive)
same,GI50,[43],> 100 µM (inactive)
same,GI50,[44],> 100 µM (inactive)
same,GI50,[45],> 100 µM (inactive)
same,GI50,[46],> 100 µM (inactive)
same,GI50,[47],> 100 µM (inactive)
same,GI50,[48],> 100 µM (inactive)
same,GI50,[49],> 100 µM (inactive)
same,GI50,[50],> 100 µM (inactive)
same,GI50,[51],> 100 µM (inactive)
same,GI50,[52],> 100 µM (inactive)
same,GI50,[53],> 100 µM (inactive)
N#CC(C#N)=C(C(C#N)C#N)C(C#N)C#N,GI50,[1],> 100 µM (inactive)
same,GI50,[2],> 100 µM (inactive)
same,GI50,[3],> 100 µM (inactive)
same,GI50,[4],> 100 µM (inactive)
same,GI50,[5],> 100 µM (inactive)
same,GI50,[6],> 100 µM (inactive)
same,GI50,[7],> 100 µM (inactive)
same,GI50,[54],> 100 µM (inactive)
same,GI50,[8],> 100 µM (inactive)
same,GI50,[9],> 100 µM (inactive)
same,GI50,[10],> 100 µM (inactive)
same,GI50,[11],> 100 µM (inactive)
same,GI50,[12],> 100 µM (inactive)
same,GI50,[13],> 100 µM
same,GI50,[14],> 100 µM (inactive)
same,GI50,[15],> 100 µM (inactive)
same,GI50,[16],> 100 µM (inactive)
same,GI50,[17],> 100 µM (inactive)
same,GI50,[18],> 100 µM (inactive)
same,GI50,[19],> 100 µM (inactive)
same,GI50,[20],> 100 µM (inactive)
same,GI50,[21],> 100 µM (inactive)
same,GI50,[22],> 100 µM (inactive)
same,GI50,[23],> 100 µM (inactive)
same,GI50,[24],> 100 µM (inactive)
same,GI50,[25],> 100 µM (inactive)
same,GI50,[28],> 100 µM (inactive)
same,GI50,[55],> 100 µM (inactive)
same,GI50,[30],> 100 µM (inactive)
same,GI50,[31],> 100 µM (inactive)
same,GI50,[32],> 100 µM (inactive)
same,GI50,[33],> 100 µM (inactive)
same,GI50,[34],> 100 µM (inactive)
same,GI50,[56],> 100 µM (inactive)
same,GI50,[36],> 100 µM (inactive)
same,GI50,[37],> 100 µM (inactive)
same,GI50,[57],> 100 µM (inactive)
same,GI50,[38],> 100 µM (inactive)
same,GI50,[39],> 100 µM (inactive)
same,GI50,[40],> 100 µM (inactive)
same,GI50,[41],> 100 µM (inactive)
same,GI50,[58],> 100 µM (inactive)
same,GI50,[42],> 100 µM (inactive)
same,GI50,[43],> 100 µM (inactive)
same,GI50,[44],> 100 µM (inactive)
same,GI50,[45],> 100 µM (inactive)
same,GI50,[46],> 100 µM (inactive)
same,GI50,[47],> 100 µM (inactive)
same,GI50,[48],> 100 µM (inactive)
same,GI50,[49],> 100 µM (inactive)
same,GI50,[50],> 100 µM (inactive)
same,GI50,[51],> 100 µM (inactive)
same,GI50,[52],> 100 µM (inactive)
same,GI50,[53],> 100 µM (inactive)
same,GI50,[59],> 100 µM (inactive)
CC1(Cc2ccccc2)NC(=S)NC1=O (stereo not drawn),GI50,[2],> 100 µM (inactive)
same,GI50,[3],> 100 µM (inactive)
same,GI50,[4],> 100 µM (inactive)
same,GI50,[5],> 100 µM (inactive)
same,GI50,[7],> 100 µM (inactive)
same,GI50,[54],> 100 µM (inactive)
same,GI50,[8],> 100 µM (inactive)
same,GI50,[9],> 100 µM (inactive)
same,GI50,[10],> 100 µM (inactive)
same,GI50,[11],> 100 µM (inactive)
same,GI50,[14],> 100 µM (inactive)
same,GI50,[16],> 100 µM (inactive)
same,GI50,[18],> 100 µM (inactive)
same,GI50,[19],> 100 µM (inactive)
same,GI50,[20],> 100 µM (inactive)
same,GI50,[21],> 100 µM (inactive)
same,GI50,[23],> 100 µM (inactive)
same,GI50,[24],> 100 µM (inactive)
same,GI50,[25],> 100 µM (inactive)
same,GI50,[26],0.143 µM (active)
same,GI50,[27],> 100 µM (inactive)
same,GI50,[28],> 100 µM (inactive)
same,GI50,[55],> 100 µM (inactive)
same,GI50,[29],> 100 µM (inactive)
same,GI50,[30],> 100 µM (inactive)
same,GI50,[31],> 100 µM (inactive)
same,GI50,[33],> 100 µM (inactive)
same,GI50,[35],> 100 µM (inactive)
same,GI50,[56],> 100 µM (inactive)
same,GI50,[37],> 100 µM (inactive)
same,GI50,[57],> 100 µM (inactive)
same,GI50,[38],> 100 µM (inactive)
same,GI50,[39],> 100 µM (inactive)
same,GI50,[40],3.03 µM (inactive)
same,GI50,[41],> 100 µM (inactive)
same,GI50,[42],> 100 µM (inactive)
same,GI50,[43],> 100 µM (inactive)
same,GI50,[45],> 100 µM (inactive)
same,GI50,[46],> 100 µM (inactive)
same,GI50,[48],> 100 µM (inactive)
same,GI50,[50],> 100 µM (inactive)
same,GI50,[51],> 100 µM (inactive)
same,GI50,[52],> 100 µM (inactive)
same,GI50,[53],> 100 µM (inactive)
same,GI50,[59],> 100 µM (inactive)
